Source: patent publication US8034810B2, “Arylsulfonamido-substituted hydroxamic acid derivatives” (Novartis AG, priority 1999, dated 2011)

Biological target: T1, MT1-MMP (Homo sapiens, UniProt P50281)
T1 construct: made in house
Assay: In vitro inhibition of MT1-MMP, fluorogenic peptide substrate
Assay type: biochemical
Settings: catalytic domain of human MT1-MMP; substrate 10 μM; 37° C.
Method: The inhibitory activities of compounds of formula I on MT1-MMP, MMP1 (collagenase 1) and MMP2 (gelatinase A) can be determined as follows:
Stock solutions of substrate (MCA-Pro-Leu-Gly-Leu-Dpa-Ala-Arg-NH2, Knight, C. G., Willenbrock, F., Murphy, G., A novel coumarin-labelled peptide for sensitive continuous assays of the matrix metalloproteinases, FEBS lett., 296, 263-266, (1992)), are prepared in 100% DMSO at a concentration 1.0 mM. Stock solutions of inhibitors are prepared in 100% DMSO. The inhibitor is diluted into the assays from a solution in 100% DMSO, and controls substitute an equal volume of DMSO so that the final DMSO concentration from inhibitor and substrate dilutions in all assays is 6.0%. Assays are performed in assay buffer (150 mM NaCl, 10 mM CaCl2, 50 mM Tris-Cl pH7.5, 0.05% Brij-35) containing 6.0% DMSO once the substrate and inhibitor are diluted into it. The substrate concentration used in the assays is 10 μM. The test is carried out at 37° C. The fluorescence changes are monitored using an excitation wavelength of 320 nm and an emission wavelength of […]. The reaction mixture is added in duplicate to appropriate wells of a 96 well microfluor plate. The reaction mixture is preincubated with the inhibitor for 30 min, the reaction is started by the addition of MMP enzyme and the fluorescence intensity is measured for 10 min. A time point that is on a linear part of the curve is chosen to determine the activity. The inhibition results are expressed as the inhibitor concentrations that produced 50% inhibition (IC50) of the activity in the control (non-inhibited) reaction. In this test, the compounds of the formula I and their pharmacologically acceptable salts have an inhibiting concentration IC50 [μmol/litre] of 0.0001 and 0.030, usually of 0.0002 to 0.010, for MMP2 and an inhibiting concentration IC50 [μmol/litre] of 0.0005 and 0.125, usually of 0.001 to 0.05, for MT1-MMP.
Plasmid: The catalytic domain of the cDNA fragment encoding a full length of human MT1-MMP gene [from Prof. Motoharu Seiki, Institute of Medical Science, The University of Tokyo; Sato, H., Takino, T., Okada, Y., Cao, J., Shinagawa, A., Yamamoto, E. and Seiki, M. Nature (London), 370:61-65, 1994)] is amplified by polymerase chain reaction (PCR). […] The resulting PCR product of a 519-bp fragment is subcloned between the NdeI and BamHI unique sites of pET11a (Stratagene). The sequence of catalytic domain of MT1-MMP (CD-MT1-MMP) is verified by the ABI PRIS™ dye terminator cycle sequencing kit with the ABI PRISM™ 377 DNA sequencer (Perkin Elmer).
Expression and Purification: The subcloned CD-MT1-MMP is used to transfect E. coli strain BL21-[DE3] (Hanahan, D. J. Mol. Biol. 1983; 166(4):557-80) and expressed as insoluble inclusion body materials. Transfectants are grown at 37° C. in 50 ml Luria-Bertani (LB) medium in the presence of 50 µg/ml ampicillin to a cell density of OD600=0.6-1.0, and CD-MT1-MMP production is induced with 1 mM isopropyl-1-D-galactopyranoside (IPTG). After treatments with 5 mg/ml lysozyme and 10 μg/ml DNase I, the inclusion bodies are prepared from the harvested cells by using the detergent buffer containing 0.2 M NaCl, 1% w/v deoxycholic acid, and 1% v/v Nonidet P40. The solubilization is achieved by resuspending the inclusion bodies in the solubilization buffer composed of 6 M urea, 100 mM 2-mercaptoethanol, and 20 mM Tris-Cl, pH8.5. The enzyme is purified and renaturated using 10 ml of a Q-Sepharose (Amersham Pharmacia Biotech) column equilibrated with 5 mM CaCl2, 0.02% v/v NaN3, in 20 mM Tris-Cl pH7.5. After washing with three volumes of the same buffer, the bound proteins are eluted with two volumes of a linear gradient of 0.5-1.0 M NaCl. The collected fractions (1 ml each) are dialyzed for 6 h in equilibrated buffer. Superdex G200 column (1×15 cm) (Amersham Pharmacia) is equilibrated in 20 mM Tris-Cl, pH 7.5, 5 mM CaCl2, 0.02% NaN3. The desalted sample is applied to Superdex G200 column and chromatographed at 0.5 ml/min. […]

IC50 [nM] | SMILES
12.7 | O=C(NO)[C@@H](Cc1ccccc1)N(Cc1ccc(Cl)cc1)S(=O)(=O)c1ccc(OCCCF)cc1 [Example 30, (R)-2-{(4-chloro-benzyl)-[4-(3-fluoro-propoxy)-benzenesulfonyl]-amino}-N-hydroxy-3-phenyl-propionamide]
5.5 | C=CCCOc1ccc(S(=O)(=O)N(Cc2cccc(OC)c2)[C@@H](C(=O)NO)C(C)C)cc1 [Example 13, (R)-2-[(4-but-3-enyloxy-benzenesulfonyl)-(3-methoxy-benzyl)-amino]-N-hydroxy-3-methyl-butyramide]
3.7 | COc1cccc(CN([C@H](C)C(=O)NO)S(=O)(=O)c2ccc(OCCCCl)cc2)c1 [Example 15, (R)-2-{[4-(3-chloro-propoxy)-benzenesulfonyl]-(3-methoxy-benzyl)-amino}-N-hydroxy-propionamide]

SMILES | IC50 [nM]
COc1ccc(CN([C@H](CC(C)C)C(=O)NO)S(=O)(=O)c2ccc(OCCCCF)cc2)cc1 [Example 53, (R)-2-{[4-(4-fluoro-butoxy)-benzenesulfonyl]-(4-methoxy-benzyl)-amino}-N-hydroxy-4-methyl-valeramide] | 9.2
